Where “and” joins values, the source holds several entries; their conditions need not be identical. Equal entries are not always repeated.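 Briefly, cells in 96-well plates were exposed to five compound concentrations for 48 h, and endpoints were estimated by linear interpolation. At the GI50, growth is halved. TGI is the concentration that stops growth completely.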
Legend:
Test in all cases: NCI anticancer screen, dose series, 48 h
NCI-H226 lung = tested on: NCI-H226 lung
CCRF-CEM leukemia = tested on: CCRF-CEM leukemia
CAKI-1 renal = tested on: CAKI-1 renal
HCT-116 colon = tested on: HCT-116 colon
SK-OV-3 ovarian = tested on: SK-OV-3 ovarian
786-0 renal = tested on: 786-0 renal
UACC-257 melanoma = tested on: UACC-257 melanoma
SK-MEL-28 melanoma = tested on: SK-MEL-28 melanoma
K-562 leukemia = tested on: K-562 leukemia
HL-60(TB) leukemia = tested on: HL-60(TB) leukemia

Row | SMILES | GI50 (NCI-H226 lung) | TGI (NCI-H226 lung) | GI50 (CCRF-CEM leukemia) | TGI (CCRF-CEM leukemia) | GI50 (CAKI-1 renal) | TGI (CAKI-1 renal) | GI50 (HCT-116 colon) | TGI (HCT-116 colon) | GI50 (SK-OV-3 ovarian) | TGI (SK-OV-3 ovarian) | GI50 (786-0 renal) | TGI (786-0 renal) | GI50 (UACC-257 melanoma) | TGI (UACC-257 melanoma) | GI50 (SK-MEL-28 melanoma) | TGI (SK-MEL-28 melanoma) | GI50 (K-562 leukemia) | TGI (K-562 leukemia) | TGI (HL-60(TB) leukemia) | GI50 (HL-60(TB) leukemia)
1 | CN(C)c1ccc(/C=c2\sc3nnc(Cc4ccccc4)n3c2=O)cc1 | > 100 µM | > 100 µM | > 100 µM | > 100 µM | > 100 µM | > 100 µM | > 10 µM | > 10 µM and 35.4 µM | > 100 µM | > 100 µM | > 100 µM | > 100 µM | > 100 µM | > 100 µM | > 100 µM | > 100 µM | > 100 µM | > 100 µM | > 10 µM | –
2 | NNC(=O)N/N=C1/C(=O)N(c2ccc(Cl)c(Cl)c2)C(=O)C(=O)C1c1nc2ccccc2o1 (stereo unspecified) | – | > 100 µM | – | > 100 µM | – | > 100 µM | – | > 100 µM | – | > 100 µM | – | > 100 µM | – | > 100 µM | – | > 100 µM | – | > 100 µM | > 100 µM | –
3 | NCCNc1ncnc2ccc(Cl)cc12 | – | > 100 µM | – | > 100 µM | – | > 100 µM | – | > 100 µM | – | > 100 µM | – | > 100 µM | – | > 100 µM | – | > 100 µM | – | > 100 µM | > 100 µM | –
4 | CN1CCN(Cc2ccc(NC(=O)c3[nH]ncc3Nc3cc(OC4CCCC4)ncn3)cc2)CC1 | 2.98 µM | 10.8 µM | 2.39 µM | 11.2 µM | 0.366 µM | 9.11 µM | 0.755 µM | 11 µM | 1.28 µM | 4.36 µM | 1.35 µM | 3.1 µM | 3.42 µM | 9.6 µM | 1.78 µM | 3.87 µM | 1.64 µM | 13.3 µM | 4.3 µM | 1.77 µM
5 | COC(=O)[C@]1(C)CC[C@]2(C)CC[C@]3(C)C(=CC(=O)[C@@H]4[C@@]5(C)CCC(=O)NC(C)(C)[C@@H]5CC[C@]43C)[C@@H]2C1 | 14.9 µM | 35.4 µM | 15.1 µM | 44.6 µM | 35.9 µM | > 100 µM | 10.8 µM | 25.6 µM | 24 µM | > 100 µM | 18.3 µM | 35 µM | 24.4 µM | 94.3 µM | 18.5 µM | 36.5 µM | 7.4 µM | 66.5 µM | 41.6 µM | 16.2 µM
6 | C=CC(=O)Nc1cccc(Nc2nc(Nc3ccc(N4CCN(C(C)=O)CC4)cc3OC)ncc2C(F)(F)F)c1 | 3.29 µM and 2.38 µM | > 10 µM and 12.7 µM | 3.62 µM and 4.32 µM | > 65.5 µM | 2.32 µM and 1.64 µM | > 10 µM and 6.01 µM | 3.96 µM and 2.54 µM | > 54.4 µM | 0.211 µM and 0.291 µM | 2.8 µM and 5.29 µM | 2.67 µM and 1.56 µM | > 10 µM and 12.8 µM | 3.97 µM and 2.97 µM | > 10 µM and 68.8 µM | 8.43 µM | > 93.1 µM | 8.12 µM and 5.61 µM | > 100 µM | > 34 µM | 1.26 µM and 2.26 µM
7 | COc1cc[nH]c1/C=C1\C(=O)Nc2ccc([N+](=O)[O-])c(N3CC[C@@H](O)C3)c21 | 0.169 µM | 1.69 µM | 0.0855 µM | 1.51 µM | 0.369 µM | 1.63 µM | 0.0759 µM | 25 µM | 0.631 µM | 8.16 µM | 0.186 µM | 3.56 µM | 0.474 µM | 1.64 µM | 0.277 µM | 1.2 µM | 0.577 µM | 7.57 µM | 0.213 µM | 0.0831 µM
8 | COC(=O)C(C(=O)C(=O)Nc1ccc(N)cc1[N+](=O)[O-])c1nc2ccc(Cl)cc2[nH]c1=O (stereo unspecified) | – | > 100 µM | – | > 100 µM | – | > 100 µM | – | > 100 µM | – | > 100 µM | – | > 100 µM | – | > 100 µM | – | > 100 µM | – | > 100 µM | > 100 µM | –
9 | CSc1nc(-c2cccc(NC(=O)CCl)c2)c(C#N)c(=O)n1C | 3.65 µM | 44.3 µM | 0.0989 µM | 9.37 µM | 1.68 µM | 3.07 µM | 0.621 µM | 4.07 µM | 12.5 µM | 48.1 µM | 1.75 µM | 3.45 µM | 1.6 µM | 6.08 µM | 2.85 µM | 9.58 µM | 1.28 µM | > 100 µM | 4.88 µM | 1.81 µM
10 | Nc1nc(N)c(-c2ccc(Cl)cc2)c(/C=C/c2ccc([N+](=O)[O-])cc2)n1 | 20.3 µM | > 100 µM | 6.17 µM | > 100 µM | 4.92 µM | > 100 µM | 3.97 µM | > 100 µM | 19.2 µM | 56.4 µM | 5.81 µM | 44.9 µM | 7.51 µM | > 100 µM | 26.6 µM | > 100 µM | 3.16 µM | > 100 µM | > 100 µM | 5.64 µM
11 | COc1c(OC2OC(CO)C(O)C(O)C2O)cc2c(c1OC)-c1ccc(OC)c(=O)cc1[C@@H](NC(C)=O)CC2 (stereo partly specified) | – | > 100 µM | – | > 100 µM | – | > 100 µM | – | > 100 µM | – | > 100 µM | – | > 100 µM | – | > 100 µM | – | > 100 µM | – | > 100 µM | > 100 µM | –
12 | CCN1C(=O)N(CC)C2C1NN=c1s/c(=C\c3cnc(C)n3C)c(=O)n12 (stereo unspecified) | > 100 µM | > 100 µM | 2.75 µM | > 100 µM | 0.7 µM | > 100 µM | 2.43 µM | > 100 µM | 2.74 µM | > 100 µM | 6.54 µM | > 100 µM | 4.69 µM | > 100 µM | 5.2 µM | > 100 µM | 0.61 µM | > 100 µM | 4.03 µM | 1.61 µM
13 | CCOc1ccccc1NC(=O)C(=O)c1c(O)c2ccc(O)cc2oc1=O | – | > 100 µM | – | > 100 µM | – | > 100 µM | – | > 100 µM | – | > 100 µM | – | > 100 µM | – | > 100 µM | – | > 100 µM | – | > 100 µM | > 100 µM | –
14 | CCCCCCC(=O)CC(=O)C(=O)Nc1ccccc1C | – | > 100 µM | – | > 100 µM | – | > 100 µM | – | > 100 µM | – | > 100 µM | – | > 100 µM | – | > 100 µM | – | > 100 µM | – | > 100 µM | > 100 µM | –
15 | CCC(=O)Oc1ccc(/C=N/NC(N)=S)nc1 | 9.72 µM | 43.4 µM | 2.81 µM | > 100 µM | 4.97 µM | > 100 µM | 4.46 µM | > 100 µM | 29.7 µM | > 100 µM | 3.19 µM | 13.7 µM | 21.5 µM | > 100 µM | 34.3 µM | > 100 µM | 5.05 µM | > 100 µM | > 100 µM | 2.17 µM
16 | CC(=O)CC(=O)ON(C)C(=O)Cc1ccccc1 | – | > 100 µM | – | > 100 µM | – | > 100 µM | – | > 100 µM | – | > 100 µM | – | > 100 µM | – | > 100 µM | – | > 100 µM | – | > 100 µM | > 100 µM | –
17 | O=C(N/N=C/c1cccc(O)c1)c1ccc(C(F)(F)F)nc1Nc1cccc(C(F)(F)F)c1 | 1.28 µM | 3.51 µM | 0.258 µM | 1.08 µM | 1.17 µM | 3 µM | 1.93 µM | 5.69 µM | 1.77 µM | 6.02 µM | 1.92 µM | 5.17 µM | 2.36 µM | 8.44 µM | 1.89 µM | 10.1 µM | 1.19 µM | 2.69 µM | 3.45 µM | 1.56 µM
18 | Cc1c(C(=O)Nc2ccc(Cl)cc2)nc(N)nc1-c1cccc(Cl)c1 | – | > 100 µM | – | > 100 µM | – | > 100 µM | – | > 100 µM | – | > 100 µM | – | > 100 µM | – | > 100 µM | – | > 100 µM | – | > 100 µM | > 100 µM | –
19 | Cn1c(=O)c2[nH]cnc2n(C)c1=O.[CH2-]C(Cc1cccc2cc(C(=O)O)c(=O)oc12)OC.[Hg+2].[OH-] (stereo unspecified) | 21.4 µM | 40.7 µM | 3.21 µM | 18 µM | 18 µM | 32 µM | 16.8 µM | 30.5 µM | > 44 µM | > 58.5 µM | 16.6 µM | 30.2 µM | 17.9 µM | 31.8 µM | 19.1 µM | 33.5 µM | 18.9 µM | 77.4 µM | 58.3 µM | 30.5 µM
20 | CCC12C=CCN3CCC4(C(=C(C(=O)OC)C1)Nc1ccccc14)[C@H]32 (stereo partly specified) | – | 86.7 µM | – | 79.5 µM | – | > 100 µM | – | > 100 µM | – | 49.7 µM | – | 82 µM | – | > 100 µM | – | > 100 µM | – | 52.5 µM | 88.7 µM | –
21 | CC(=O)OC1(C#N)CC2OC1C1NC21 (stereo unspecified) | – | > 100 µM | – | > 100 µM | – | > 100 µM | – | > 100 µM | – | > 100 µM | – | > 100 µM | – | – | – | > 100 µM | – | > 100 µM | > 100 µM | –
22 | O=C(OCc1ccccc1)c1ccccc1-c1c2ccc(=O)cc-2oc2cc(OCc3ccccc3)ccc12 | – | 32.2 µM | – | 36.8 µM | – | 58.5 µM | – | 57.7 µM | – | – | – | 71 µM | – | 67 µM | – | 61 µM | – | > 100 µM | 22.8 µM | –
23 | CN/N=C(/CC(=O)c1sc(NNC(C)=O)nc1C)C(=O)Nc1ccc(OC)cc1OC | – | > 100 µM | – | > 100 µM | – | > 100 µM | – | > 100 µM | – | – | – | > 100 µM | – | > 100 µM | – | > 100 µM | – | > 100 µM | > 100 µM | –

From PubChem BioAssay (NCI)
